{"source": "patent US20090275574A1", "about": "“NOVEL COMPOUNDS-300” (ASTRAZENECA AB, priority 2008, published 2009)"}
{"molecular_target": "T1, cloned human M4 receptor (Homo sapiens, UniProt P08173)", "T1 construct": "purchased Perkin-Elmer RBHM4M; host or cells: Chinese hamster ovary cells (CHO), membranes", "T1 sequence (P08173 1-479)": "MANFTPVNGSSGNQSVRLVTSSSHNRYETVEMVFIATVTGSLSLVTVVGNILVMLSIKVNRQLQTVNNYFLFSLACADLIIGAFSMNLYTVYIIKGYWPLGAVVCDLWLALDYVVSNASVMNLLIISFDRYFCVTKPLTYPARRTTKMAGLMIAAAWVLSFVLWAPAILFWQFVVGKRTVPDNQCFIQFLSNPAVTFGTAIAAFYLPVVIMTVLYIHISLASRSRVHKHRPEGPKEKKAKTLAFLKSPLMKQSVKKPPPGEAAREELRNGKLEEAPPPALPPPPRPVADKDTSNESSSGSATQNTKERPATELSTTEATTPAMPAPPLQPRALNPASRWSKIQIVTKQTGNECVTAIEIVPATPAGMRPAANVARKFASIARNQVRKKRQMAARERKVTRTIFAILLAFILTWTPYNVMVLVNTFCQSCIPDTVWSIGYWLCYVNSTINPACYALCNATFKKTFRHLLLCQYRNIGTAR", "assay": "hM4 receptor GTPγS binding", "type": "biochemical", "settings": "CHO membranes expressing hM4, [35S]GTPγS binding", "procedure": "hM4 Receptor GTPγS Binding Membranes produced from Chinese hamster ovary cells (CHO) expressing the cloned human M4 receptor (human Muscarinic receptor subtype 4, gene bank access NM_000741), are obtained from Perkin-Elmer (RBHM4M). The membranes are thawed at 37° C., passed 3 times through a 23-gauge blunt-end needle, diluted in the GTPγS binding buffer (50 mM Hepes, 20 mM NaOH, 100 mM NaCl, 1 mM EDTA, 5 mM MgCl2, pH 7.4, 100 μM DTT). The EC50, IC50 and Emax of the compounds of the invention are evaluated from 10-point dose-response curves (three fold concentration range) done in 60 μl in 384-well non-specific binding surface plate (Corning). Ten microliters from the dose-response curves plate (5× concentration) are transferred to another 384 well plate containing 25 μl of the following: 10 μg of hM4 membranes, 500 μg of Flashblue beads (Perkin-Elmer) and GDP 40 μM. An additional 15 μl containing 3.3× (60,000 dpm) of GTPγ^35S (0.4 nM final) are added to the wells resulting in a total well volume of 50 μl. Basal and maximal stimulated [^35S]GTPγS binding are determined in absence and presence of 30 μM final of acetylcholine agonist. The membranes/beads mix are pre-incubated for 15 minutes at room temperature with 40 μM GDP prior to distribution in plates (20 μM final). The reversal of acetylcholine-induced stimulation (10 μM final) of [^35S]GTPγS binding is used to assay the antagonist properties (IC50) of the compounds. The plates are incubated for 60 minutes at room temperature then centrifuged at 400 rpm for 5 minutes. The radioactivity (cpm) is counted in a Trilux (Perkin-Elmer). Values of EC50, IC50 and Emax are obtained using sigmoidal fits of a non-linear curve-fitting program (XLfit version 4.2.2 Excel add-in version 4.2.2 build 18 math 1Q version 2.1.2 build 18) of percent stimulated [^35S]GTPγS binding vs. log(molar ligand). All pEC50 and pIC50 values are reported as arithmetic means±standard error of mean of ‘n’ independent experiments.", "units": {"EC50": "µM"}}
{"smiles": "O=C1CO[C@H]2CCCC[C@@H]2N1C1CCN(C2CCC(COCC(F)F)CC2)CC1", "note": "(single isomer, unassigned) [Example 27]", "EC50": "> 90"}
{"smiles": "CC(C)OCC1CCC(N2CCC(N3C(=O)NC[C@H]4CCCC[C@@H]43)CC2)CC1", "note": "(single isomer, unassigned) [Example 04]", "EC50": 0.683}
{"smiles": "O=C1CO[C@H]2CCCC[C@@H]2N1C1CCN(C2CCC(COCC3CC3)CC2)CC1", "note": "(single isomer, unassigned) [Example 22]", "EC50": "> 90"}
{"smiles": "CC(C)OCC1CCC(N2CCC(N3C(=O)CO[C@H]4CCC(F)(F)C[C@@H]43)CC2)CC1", "note": "(single isomer, unassigned) [Example 37]", "EC50": "> 90"}
{"smiles": "CCCOCC1CCC(N2CCC(N3C(=O)NC[C@H]4CCCC[C@@H]43)CC2)CC1", "note": "(single isomer, unassigned) [Example 02]", "EC50": 0.521}
{"smiles": "O=C1CO[C@H]2CCCC[C@@H]2N1C1CCN(C2CCC(COCCF)CC2)CC1", "note": "(single isomer, unassigned) [Example 25]", "EC50": "> 26.5"}
{"smiles": "O=C1COC2CCCC2N1C1CCN([C@H]2CC[C@@H](COCC3CC3)CC2)CC1", "note": "(single isomer, unassigned) [Example 48]", "EC50": "> 11.7"}
{"smiles": "O=C1CO[C@H]2CCCC[C@@H]2N1C1CCN(C2CCC(COCC3CC3)CC2)CC1", "note": "(single isomer, unassigned) [Example 23]", "EC50": "> 90"}
{"smiles": "CCOCC1CCC(N2CCC(N3C(=O)CO[C@H]4CCCC[C@@H]43)CC2)CC1", "note": "(single isomer, unassigned) [Example 13]", "EC50": "> 23.4"}
{"smiles": "O=C1CO[C@H]2CCCC[C@@H]2N1C1CCN(C2CCC(COCCF)CC2)CC1", "note": "(single isomer, unassigned) [Example 24]", "EC50": "> 90"}
{"smiles": "CCCOC1CCC(N2CCC(N3C(=O)CO[C@H]4CCCC[C@@H]43)CC2)CC1", "note": "(single isomer, unassigned) [Example 17]", "EC50": "> 90"}
{"smiles": "CCOC[C@@H]1CC[C@H](N2CCC(N3C(=O)CO[C@H]4CCCC[C@@H]43)CC2)C1", "note": "[Example 43, (4aS,8aS)-4-(1-((1S,3R)-3-(ethoxymethyl)cyclopentyl)piperidin-4-yl)hexahydro-2H-benzo[b][1,4]oxazin-3(4H)-one]", "EC50": "> 28.1"}
{"smiles": "O=C1CO[C@H]2CCCC[C@@H]2N1C1CCN(C2CCC(COCC(F)F)CC2)CC1", "note": "(single isomer, unassigned) [Example 26]", "EC50": "> 90"}
{"smiles": "CC(C)OCC1CCC(N2CCC(N3C(=O)CO[C@H]4CCCC[C@@H]43)CC2)CC1", "note": "(single isomer, unassigned) [Example 18]", "EC50": "> 24.9"}
{"smiles": "CCOC[C@H]1CC[C@@H](N2CCC(N3C(=O)CO[C@H]4CCCC[C@@H]43)CC2)C1", "note": "[Example 42, (4aS,8aS)-4-(1-((1R,3S)-3-(ethoxymethyl)cyclopentyl)piperidin-4-yl)hexahydro-2H-benzo[b][1,4]oxazin-3(4H)-one]", "EC50": 4.24}
{"smiles": "CCOCC1CC(N2CCC(N3C(=O)CO[C@H]4CCCC[C@@H]43)CC2)C1", "note": "(single isomer, unassigned) [Example 39]", "EC50": "> 90"}
{"smiles": "CCCOCC1CCC(N2CCC(N3C(=O)NC[C@H]4CCCC[C@@H]43)CC2)CC1", "note": "(single isomer, unassigned) [Example 01]", "EC50": "> 51.9"}
{"smiles": "O=C1NC[C@H]2CCCC[C@@H]2N1C1CCN(C2CCC(COCC(F)F)CC2)CC1", "note": "(single isomer, unassigned) [Example 51]", "EC50": "> 90"}
{"smiles": "O=C1CO[C@H]2CCCC[C@@H]2N1C1CCN(C2CC(COCC3CCC3)C2)CC1", "note": "(single isomer, unassigned) [Example 40]", "EC50": "> 90"}
{"smiles": "CC(C)OCC1CCC(N2CCC(N3C(=O)CO[C@H]4CCC(F)(F)C[C@@H]43)CC2)CC1", "note": "(single isomer, unassigned) [Example 38]", "EC50": "> 90"}
{"smiles": "CCOCC1CCC(N2CCC(N3C(=O)CO[C@H]4CCCC[C@@H]43)CC2)CC1", "note": "(single isomer, unassigned) [Example 14]", "EC50": 4.84}
{"smiles": "CC(C)OCC1CCC(N2CCC(N3C(=O)CO[C@H]4CCCC[C@@H]43)CC2)CC1", "note": "(mixture of isomers) [Example 15, (4aS,8aS)-4-(1-(4-(isopropoxymethyl)cyclohexyl)piperidin-4-yl)hexahydro-2H-benzo[b][1,4]oxazin-3(4H)-one]", "EC50": "> 33.5"}
{"smiles": "CC(C)OCC1CCC(N2CCC(N3C(=O)CO[C@H]4CCCC[C@@H]43)CC2)CC1", "note": "(single isomer, unassigned) [Example 19]", "EC50": "> 43.4"}
{"smiles": "CCCOC1CCC(N2CCC(N3C(=O)NC[C@H]4CCCC[C@@H]43)CC2)CC1", "note": "(single isomer, unassigned) [Example 06]", "EC50": "> 90"}
{"smiles": "CCOCC1CCC(N2CCC(N3C(=O)NC[C@H]4CCCC[C@@H]43)CC2)CC1", "note": "(mixture of isomers) [Example 08, (4aR,8aS)-1-(1-(4-(ethoxymethyl)cyclohexyl)piperidin-4-yl)octahydroquinazolin-2(1H)-one]", "EC50": 0.985}
{"smiles": "CCOCC1CCC(N2CCC(N3C(=O)CO[C@H]4CCCC[C@@H]43)CC2)C1", "note": "(single isomer, unassigned) [Example 45]", "EC50": "> 14.7"}
{"smiles": "CCOCC1CCC(N2CCC(N3C(=O)CO[C@H]4CCCC[C@@H]43)CC2)C1", "note": "(single isomer, unassigned) [Example 44]", "EC50": 5.36}
